Measured values reported in ChEMBL document CHEMBL3421567, “Non-electrophilic modulators of the canonical Keap1/Nrf2 pathway” (Bioorg Med Chem Lett, 2015).
Residues, ends and D or L forms follow the SMILES beside them.

What was measured:
Type in all cases: protein assay
Keap1/Nrf2 [1] = target: T1, Keap1/Nrf2 (Homo sapiens, UniProt Q14145+Q16236); test: Binding affinity to Keap1/Nrf2 complex (unknown origin) by ITC method
Keap1/Nrf2 [2] = target: T1, Keap1/Nrf2; test: Binding affinity to Keap1/Nrf2 complex (unknown origin) by fluorescence polarization assay
Keap1/Nrf2 [3] = target: T1, Keap1/Nrf2; test: Inhibition of Keap1/Nrf2 complex (unknown origin)

T1 sequence (Q16236 whole entry): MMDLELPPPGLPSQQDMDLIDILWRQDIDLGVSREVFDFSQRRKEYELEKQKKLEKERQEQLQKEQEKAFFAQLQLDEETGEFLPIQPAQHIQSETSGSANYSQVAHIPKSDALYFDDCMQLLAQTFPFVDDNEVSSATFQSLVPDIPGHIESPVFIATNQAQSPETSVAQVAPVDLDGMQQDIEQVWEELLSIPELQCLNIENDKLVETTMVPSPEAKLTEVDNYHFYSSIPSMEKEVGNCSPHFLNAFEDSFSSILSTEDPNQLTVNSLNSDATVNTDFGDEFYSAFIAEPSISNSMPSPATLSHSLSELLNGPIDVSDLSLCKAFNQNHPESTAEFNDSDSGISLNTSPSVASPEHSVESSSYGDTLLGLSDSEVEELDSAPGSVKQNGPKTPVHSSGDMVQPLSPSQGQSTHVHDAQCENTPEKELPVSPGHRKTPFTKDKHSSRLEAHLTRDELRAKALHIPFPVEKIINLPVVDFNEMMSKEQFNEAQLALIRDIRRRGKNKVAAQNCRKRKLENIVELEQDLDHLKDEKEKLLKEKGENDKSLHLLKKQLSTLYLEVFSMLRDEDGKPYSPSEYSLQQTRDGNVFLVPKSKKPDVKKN
T1 sequence (Q14145 whole entry): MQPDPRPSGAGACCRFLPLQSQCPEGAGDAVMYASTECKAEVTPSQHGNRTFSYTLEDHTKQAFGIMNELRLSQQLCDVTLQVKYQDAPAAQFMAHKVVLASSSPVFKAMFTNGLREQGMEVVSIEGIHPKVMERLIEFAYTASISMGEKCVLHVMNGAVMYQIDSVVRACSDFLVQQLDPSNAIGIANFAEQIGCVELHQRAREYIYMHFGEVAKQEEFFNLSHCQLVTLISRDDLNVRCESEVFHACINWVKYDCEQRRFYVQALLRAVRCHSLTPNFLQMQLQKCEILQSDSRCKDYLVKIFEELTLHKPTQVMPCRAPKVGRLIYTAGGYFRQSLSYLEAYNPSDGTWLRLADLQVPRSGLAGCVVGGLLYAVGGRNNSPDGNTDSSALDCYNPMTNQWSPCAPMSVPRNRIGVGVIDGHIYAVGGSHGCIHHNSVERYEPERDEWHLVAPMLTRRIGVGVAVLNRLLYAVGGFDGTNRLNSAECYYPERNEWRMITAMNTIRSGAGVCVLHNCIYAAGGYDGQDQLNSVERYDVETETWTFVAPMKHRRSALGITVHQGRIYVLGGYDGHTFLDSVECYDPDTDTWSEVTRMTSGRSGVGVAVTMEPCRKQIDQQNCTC

C[C@@H](O)[C@H](NC(=O)[C@@H](N)CCC(=O)O)C(=O)NCC(=O)N[C@@H](CCC(=O)O)C(=O)O (H-ETGE-OH)
Kd (Keap1/Nrf2 [1]): 5 nM

CC[C@H](C)[C@H](NC(=O)[C@@H]1CCCN1C(=O)[C@H](CC(C)C)NC(=O)[C@H](Cc1ccccc1)NC(=O)[C@H](CCC(=O)O)NC(=O)CNC(=O)[C@@H](NC(=O)[C@H](CCC(=O)O)NC(=O)[C@H](CCC(=O)O)NC(=O)[C@H](CC(=O)O)NC(=O)[C@H](CC(C)C)NC(=O)[C@H](CCC(N)=O)NC(=O)[C@@H](N)CC(C)C)[C@@H](C)O)C(=O)N[C@@H](CCC(N)=O)C(=O)O
Kd (Keap1/Nrf2 [2]): 61.9 nM

Cc1cccc2c1CCN(C(=O)[C@H]1CCCC[C@H]1C(=O)O)[C@@H]2CN1Cc2ccccc2C1=O
IC50 (Keap1/Nrf2 [3]): 750 nM

CC(C)C[C@H](NC(=O)[C@@H](N)CC(=O)O)C(=O)NCC(=O)O (H-Asp-Leu-Gly-OH)
Kd (Keap1/Nrf2 [1]): 1000 nM
